Measurements published in ChEMBL document CHEMBL1201862, “PubChem BioAssay data set” (2004).
Calls of active or inactive are those of the source. Cut-off read from the data, not from the text of the source, for most assays here: actives have a measured EC50 and inactives only a lower limit.

How the values were obtained:
[1] = target: T1, RNA-binding protein pos-1 (Caenorhabditis elegans, UniProt G5EF15); test: disruptors of C. elegans POS-1 RNA interaction – biochemical, fluorescence polarization, dose response (AID 1964);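 note: purified POS-1 fused to maltose binding protein made in E. coli; potency of compounds blocking POS-1 binding to fluorescent RNA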
T1 sequence (G5EF15 whole entry): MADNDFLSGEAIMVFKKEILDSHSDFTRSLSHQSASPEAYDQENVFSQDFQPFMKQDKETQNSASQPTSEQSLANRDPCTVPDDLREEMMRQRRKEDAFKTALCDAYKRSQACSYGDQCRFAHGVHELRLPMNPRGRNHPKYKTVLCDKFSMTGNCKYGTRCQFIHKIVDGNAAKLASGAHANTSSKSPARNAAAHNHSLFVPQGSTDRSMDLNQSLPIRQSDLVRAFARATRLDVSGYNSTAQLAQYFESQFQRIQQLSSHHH

[2] = target: T2, Zinc finger protein mex-5 (Caenorhabditis elegans, UniProt Q9XUB2); test: potency of MEX-5 RNA-binding blockers – biochemical, C. elegans, fluorescence polarization, dose response (AID 1960)
T2 sequence (Q9XUB2 whole entry): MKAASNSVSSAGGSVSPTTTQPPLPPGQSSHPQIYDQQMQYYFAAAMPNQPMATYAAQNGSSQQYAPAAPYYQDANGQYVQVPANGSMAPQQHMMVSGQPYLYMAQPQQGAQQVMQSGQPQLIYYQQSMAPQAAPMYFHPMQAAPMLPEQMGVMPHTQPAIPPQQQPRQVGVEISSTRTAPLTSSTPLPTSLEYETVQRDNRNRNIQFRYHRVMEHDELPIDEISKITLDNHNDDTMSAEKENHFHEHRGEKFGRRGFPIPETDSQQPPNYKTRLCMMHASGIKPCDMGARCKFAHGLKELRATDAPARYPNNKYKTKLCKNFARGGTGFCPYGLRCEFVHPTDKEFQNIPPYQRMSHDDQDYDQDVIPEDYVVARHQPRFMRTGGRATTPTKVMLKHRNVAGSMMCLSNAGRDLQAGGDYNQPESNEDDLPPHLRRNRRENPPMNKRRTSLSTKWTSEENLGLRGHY

BJ [3] = test: BJ-TERT fibroblast viability loss – cell-based, RAS-independent, luminescence, dose response (AID 1933); type: functional; conditions: Homo sapiens
BJ [4] = test: cells; type: functional, cell-based; conditions: Homo sapiens
BJ [5] = test: BJ-TERT-LT-ST fibroblast viability loss – cell-based, RAS-independent, luminescence, dose response (AID 1935); type: functional; conditions: Homo sapiens;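 note: BJ fibroblasts immortalized with TERT plus LT and ST oncogenes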
[6] = DRD fibroblast viability loss – cell-based, non-viral oncogenic, luminescence, dose response (AID 1934); type: functional; conditions: Homo sapiens
[7] = target: T3, Carboxy-terminal domain RNA polymerase II polypeptide A small phosphatase 1 (Homo sapiens, UniProt Q9GZU7); test: CTDSP1 inhibitors, concentration-response, biochemical, absorbance readout, ultra-high-throughput screen actives (AID 540297); type: functional
T3 sequence (Q9GZU7 whole entry): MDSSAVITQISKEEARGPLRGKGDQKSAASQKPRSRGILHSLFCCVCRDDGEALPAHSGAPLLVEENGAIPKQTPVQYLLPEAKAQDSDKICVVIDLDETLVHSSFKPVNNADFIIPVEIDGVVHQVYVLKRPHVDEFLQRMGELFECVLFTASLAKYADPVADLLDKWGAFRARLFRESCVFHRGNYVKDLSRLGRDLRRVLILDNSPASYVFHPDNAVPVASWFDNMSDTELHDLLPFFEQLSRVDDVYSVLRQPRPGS

Paired box protein Pax-8 = Paired box protein Pax-8 (Homo sapiens, UniProt Q06710); test: PAX8 transcriptional activity inhibition in RMG-I – RMG-I cells, luciferase, cherry-pick, dose response (AID 687027); type: functional, cell-based;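 note: luciferase reporter driven by Pax8 target thyroperoxidase promoter measured by SteadyGlo luminescence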
Paired box protein Pax-8, sequence (Q06710 whole entry): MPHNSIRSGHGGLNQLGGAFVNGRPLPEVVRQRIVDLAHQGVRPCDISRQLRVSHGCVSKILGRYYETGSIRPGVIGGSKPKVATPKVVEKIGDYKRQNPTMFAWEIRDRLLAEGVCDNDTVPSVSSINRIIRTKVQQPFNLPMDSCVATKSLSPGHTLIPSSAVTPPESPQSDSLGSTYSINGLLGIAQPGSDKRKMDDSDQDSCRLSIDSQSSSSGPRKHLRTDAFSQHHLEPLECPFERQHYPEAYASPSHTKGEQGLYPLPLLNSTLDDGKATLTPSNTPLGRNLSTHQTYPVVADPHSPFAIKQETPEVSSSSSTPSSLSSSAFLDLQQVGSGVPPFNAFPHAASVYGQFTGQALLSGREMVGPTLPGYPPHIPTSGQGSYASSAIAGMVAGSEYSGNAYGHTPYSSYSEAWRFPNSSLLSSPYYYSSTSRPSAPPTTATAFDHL

Aminopeptidase N = target: T4, Aminopeptidase N (Plasmodium falciparum FcB1/Columbia, UniProt O96935); test: malaria alanyl aminopeptidase activity blockers – biochemical, fluorogenic H-Leu-NHMec substrate, 1536-well (AID 1445); parameters: species or system Plasmodium falciparum 3D7, 3D7
T4 sequence (O96935 whole entry): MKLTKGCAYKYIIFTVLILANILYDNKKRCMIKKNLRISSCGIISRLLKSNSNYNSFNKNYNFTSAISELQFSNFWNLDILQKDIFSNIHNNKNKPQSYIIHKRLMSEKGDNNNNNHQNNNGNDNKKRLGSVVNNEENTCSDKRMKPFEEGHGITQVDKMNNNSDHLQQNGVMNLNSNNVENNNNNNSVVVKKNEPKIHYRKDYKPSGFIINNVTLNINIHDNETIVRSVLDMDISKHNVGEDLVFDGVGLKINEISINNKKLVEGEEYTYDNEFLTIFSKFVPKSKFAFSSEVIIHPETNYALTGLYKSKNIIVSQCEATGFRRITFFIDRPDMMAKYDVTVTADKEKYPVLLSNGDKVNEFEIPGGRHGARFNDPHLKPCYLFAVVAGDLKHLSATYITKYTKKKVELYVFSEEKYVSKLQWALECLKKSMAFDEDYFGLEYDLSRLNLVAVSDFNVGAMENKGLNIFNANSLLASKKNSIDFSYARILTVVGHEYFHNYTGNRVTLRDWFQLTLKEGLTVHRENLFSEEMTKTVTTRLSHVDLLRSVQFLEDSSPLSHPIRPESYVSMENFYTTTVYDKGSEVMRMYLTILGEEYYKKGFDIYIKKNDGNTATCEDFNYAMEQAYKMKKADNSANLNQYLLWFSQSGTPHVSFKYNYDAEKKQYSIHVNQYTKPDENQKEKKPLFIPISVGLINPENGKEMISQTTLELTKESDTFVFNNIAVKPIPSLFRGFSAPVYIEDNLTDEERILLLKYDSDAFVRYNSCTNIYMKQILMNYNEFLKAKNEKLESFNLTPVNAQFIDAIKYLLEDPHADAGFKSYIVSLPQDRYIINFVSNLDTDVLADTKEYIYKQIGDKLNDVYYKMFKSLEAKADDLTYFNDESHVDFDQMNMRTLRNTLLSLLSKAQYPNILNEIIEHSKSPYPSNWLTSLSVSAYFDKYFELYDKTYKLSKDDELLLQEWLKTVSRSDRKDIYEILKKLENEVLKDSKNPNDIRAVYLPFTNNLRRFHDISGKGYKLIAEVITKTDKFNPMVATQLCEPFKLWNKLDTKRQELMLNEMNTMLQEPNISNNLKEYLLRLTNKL

[8] = test system: Streptococcus sp. 'group A'; test: Streptococcus pyogenes SK(-)GAS viability under kanamycin – luminescence, BacTiterGlo, confirmation, counter-screen for streptokinase expression inhibitor project, dose response (AID 1900); type: functional, organism-based
Streptokinase A = target: T5, Streptokinase A (Streptococcus pyogenes serotype M1, UniProt P10520); test: viability-normalized secreted streptokinase activity reduction – plasminogen activation absorbance, OD405, dose response (AID 1914); type: functional, Streptococcus pyogenes M1 GAS;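 note: secreted streptokinase activity via plasminogen activation per viability signal from cell pellet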
T5 sequence (P10520 whole entry): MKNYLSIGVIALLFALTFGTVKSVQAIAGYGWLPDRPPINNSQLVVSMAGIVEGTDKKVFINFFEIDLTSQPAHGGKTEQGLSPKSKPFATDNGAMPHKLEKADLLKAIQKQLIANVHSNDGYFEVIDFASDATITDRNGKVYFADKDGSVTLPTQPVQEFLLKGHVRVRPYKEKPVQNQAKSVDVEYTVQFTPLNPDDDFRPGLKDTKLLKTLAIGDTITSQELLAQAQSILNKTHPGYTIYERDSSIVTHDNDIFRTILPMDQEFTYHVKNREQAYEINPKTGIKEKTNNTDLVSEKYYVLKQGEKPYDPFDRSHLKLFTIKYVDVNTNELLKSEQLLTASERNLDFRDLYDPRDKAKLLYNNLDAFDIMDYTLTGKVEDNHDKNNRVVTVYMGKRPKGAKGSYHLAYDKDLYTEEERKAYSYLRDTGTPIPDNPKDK

Streptococcus = test: GAS UMAA2166 growth inhibition – luminescence, BacTiterGlo, counter-screen for streptokinase expression inhibitor project, dose response (AID 1915); type: functional, organism-based;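 note: potency for reduction of bacterial viability or growth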
INS1 = test: INS-1E survival protection against cytokine death – cell-based, luminescence, retest, dose response (AID 449756); type: functional; conditions: Rattus norvegicus;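 note: cell death triggered by IL-1 beta plus TNF-alpha plus IFN-gamma mixture; protective hits raise ATP signal compared with cytokine alone wells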
[9] = Luminescence Cell-Based Dose Confirmation HTS to Identify Activators of 5'UTR Stem-Loop Driven Alpha-Synuclein mRNA Translation in H4 Neuroglioblastoma Cells. [Related pubchem assays: 1829 (Project Summary), 1814 (Primary HTS)]; type: functional
[10] = Luminescence Cell-Based Dose Response HTS to Identify Activators of Luciferase Translation or Activity in H4 […] Cells. [Related pubchem assays: 1829 (Project Summary), 1814 (Primary HTS)]; type: functional
H4 = test: Luminescence Cell-Based Dose Response HTS to Identify Activators of 5'UTR Stem-Loop Driven Prion Protein mRNA Translation in H4 Neuroglioblastoma Cells. [Related pubchem assays: 1829 (Project Summary), 1814 (Primary HTS)]; type: functional; conditions: Homo sapiens
Protein skinhead-1 = target: T6, Protein skinhead-1 (Caenorhabditis elegans, UniProt P34707); type: functional
T6 sequence (P34707 whole entry): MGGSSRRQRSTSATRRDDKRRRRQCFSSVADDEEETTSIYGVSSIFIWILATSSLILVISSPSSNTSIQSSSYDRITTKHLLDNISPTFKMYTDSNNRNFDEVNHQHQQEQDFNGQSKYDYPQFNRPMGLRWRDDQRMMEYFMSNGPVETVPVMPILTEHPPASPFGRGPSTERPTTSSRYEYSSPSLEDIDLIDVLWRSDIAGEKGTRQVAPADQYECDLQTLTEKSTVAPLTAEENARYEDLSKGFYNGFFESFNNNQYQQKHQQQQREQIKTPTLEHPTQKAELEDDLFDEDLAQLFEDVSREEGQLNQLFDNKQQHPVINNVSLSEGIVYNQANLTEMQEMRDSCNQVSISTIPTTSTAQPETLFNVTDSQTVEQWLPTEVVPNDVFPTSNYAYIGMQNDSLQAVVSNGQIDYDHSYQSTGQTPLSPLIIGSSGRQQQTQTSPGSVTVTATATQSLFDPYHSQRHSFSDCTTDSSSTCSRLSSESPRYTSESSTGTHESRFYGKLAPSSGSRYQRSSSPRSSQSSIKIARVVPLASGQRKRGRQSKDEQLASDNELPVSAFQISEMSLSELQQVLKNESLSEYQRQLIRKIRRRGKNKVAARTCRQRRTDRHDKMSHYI

CC(C)(C)OC(=O)NCCCC1=CC2=CC(=O)C(C)(OC(=O)c3ccc(Cl)nc3)C(=O)C2=CO1 (centres undefined)
EC50 [1]: 17.2 µM (active)
EC50 [2]: 20 µM (active)

O=C(O)CCc1ccc(-c2cccs2)n1-c1ccc(C(=O)O)cc1
EC50 [1]: > 300 µM (not active)
EC50 [2]: > 300 µM (not active)

C=C1[C@@H](C)C2[C@H](Cc3ccccc3)NC(=O)[C@]23OC(=O)CC[C@H](O)CCC[C@H](C)C/C=C/[C@H]3[C@@H]1O (some centres undefined)
EC50 (BJ [3]): 8.36 µM (inconclusive)
EC50 (BJ [4]): > 150 µM (not active)
EC50 (BJ [5]): 17.2 µM (active)
EC50 [6]: 12.2 µM (inconclusive)

CCOc1ccc(C(=O)Nc2ccc(NC(=O)c3ccccc3)c(C)c2)cc1[N+](=O)[O-]
IC50 [7]: 5.03 µM (active)

c1ccc(-c2cn3c(n2)-c2ccccc2C3)cc1
EC50 (BJ [3]): 14.9 µM (active)
EC50 (BJ [4]): 14.3 µM (active)
EC50 (BJ [5]): > 150 µM (inconclusive)
EC50 [6]: 11.6 µM (active)

COc1cc2nc(C3CCC3)nc(N3CCN(c4ccccc4OC)CC3)c2cc1OC
AC50 (Paired box protein Pax-8): 18.9 µM (active)

O=C(Nn1c(SCc2ccc(F)cc2)nc2ccsc2c1=O)c1ccccc1
IC50 (Aminopeptidase N): 55.6 µM (active)

Cc1ccc(Oc2nc(-c3ccccn3)nc3ccccc23)cc1
EC50 [1]: > 300 µM (inconclusive)
EC50 [8]: 8.8 µM (active)
EC50 [2]: 6.96 µM (active)
EC50 (Streptokinase A): > 150 µM (not active)
EC50 (Streptococcus): > 150 µM (not active)
AC50 (INS1): 1.78 µM (active)

O=C1N=C(NS(=O)(=O)c2ccccc2)S/C1=C1\C(=O)Nc2ccccc21
IC50 (Aminopeptidase N): 25.1 µM (active)

C[C@H]1CCCCO[C@@H](CN(C)C(=O)NC2CCCCC2)[C@@H](C)CN([C@@H](C)CO)C(=O)c2cc(NC(=O)Nc3ccc(C(F)(F)F)cc3)ccc2O1
AC50 (Paired box protein Pax-8): 2.54 µM (active)

COc1ccc(C2C(C#N)=C(N)OC3=C2C(=O)CCC3)c(OC)c1OC (centres undefined)
EC50 [1]: > 300 µM (not active)
EC50 [2]: > 300 µM (not active)

CCC1(C)Cc2ccccc2-c2nc(NCCO)n(-c3ccc(C)cc3)c(=O)c21 (centres undefined)
EC50 [9]: > 120 µM (not active)
EC50 [10]: > 120 µM (not active)
EC50 (H4): > 120 µM (not active)
IC50 (Protein skinhead-1): > 100 µM (inactive)
